The source of these data is patent publication US9161536B2, “Herbicidal compositions comprising 4-amino-3-chloro-6-(4-chloro-2-fluoro-3-methoxyphenyl)-5-fluoropyridine-2-carboxylic acid or a derivative thereof and flurtamone, diflufenican, or picolinafen” (Dow AgroSciences LLC, priority 2012, dated 2015).

Common to all, as to assay type: in vivo
Assay [1] deals with Triticum aestivum (spring), spring wheat (TRZAS). As to the kind of experiment: greenhouse trial, foliar applied compositions, TRZAS. From the text: (§1) More specifically, the following equation is used to calculate the expected activity of mixtures containing two herbicical active ingredients: Expected=A+B−(A×B/100) • A=observed efficacy of a first active ingredient at the same concentration as used in the mixture; • B=observed efficacy of the second active ingredient (or product, which may be a combination of active ingredients) at the same concentration as used in the mixture.
(§2) Results in Tables 1-8 are greenhouse trial results for foliar applied compositions.
(§3) • g/ha=grams acid equivalent per hectare (g ae/ha) for Cmpd 1 and grams active ingredient per hectare (g ai/ha) for diflufenican, picolinafen, BACARA® and BACARA® FORTE • Obs=observed value • Exp=expected value as calculated by the equations set forth above in paragraph [0024]. • Cmpd 1=benzyl 4-amino-3-chloro-6-(4-chloro-2-fluoro-3-methoxyphenyl)-5-fluoropyridine-2-carboxylate

In assay [2] the test system is Hordeum vulgare L., spring barley (HORVS). The assay is described as follows: greenhouse trial, foliar applied compositions, HORVS.
Excerpt: as §1, §2, §3

In assay [3] the test system is Sinapis arvensis L., wild mustard (SINAR). The assay is described as follows: greenhouse trial, foliar applied compositions, SINAR.
Excerpt: as §1, §2, §3

For assay [4], the system named is Lamium purpureum L., purple deadnettle (LAMPU). The assay is described as follows: greenhouse trial, foliar applied compositions, LAMPU.
Excerpt: as §1, §2, §3

In assay [5] the test system is Chenpodium album L., common lambsquarters (CHEAL). As to the kind of experiment: greenhouse trial, foliar applied compositions, CHEAL.
Excerpt: as §1, §2, §3

For assay [6], the system named is Kochia scoparia (L.) Schrad., kochia (KCHSC). The assay is described as follows: greenhouse trial, foliar applied compositions, KCHSC.
Excerpt: as §1, §2, §3

Assay [7] has as its system Salsola tragus L., Russian thistle (SASKR). As to the kind of experiment: greenhouse trial, foliar applied compositions, SASKR.
Excerpt: as §1, §2, §3

Assay [8] concerns Veronica persica Poir., Persian speedwell (VERPE). As to the kind of experiment: greenhouse trial, foliar applied compositions, VERPE.
Excerpt: as §1, §2, §3

Assay [9] relates to Viola tricolor L., wild violet (VIOTR). As to the kind of experiment: greenhouse trial, foliar applied compositions, VIOTR.
Excerpt: as §1, §2, §3

Assay [10] concerns Matricaria recutita L., wild chamomile (MATCH). The assay is described as follows: greenhouse trial, foliar applied compositions, MATCH.
Excerpt: as §1, §2, §3

Assay [11] concerns Cirsium arvense (L.) Scop., Canada thistle (CIRAR). As to the kind of experiment: greenhouse trial, foliar applied compositions, CIRAR.
Excerpt: as §1, §2, §3

In assay [12] the test system is Galium aparine L., catchweed bedstraw (GALAP). As to the kind of experiment: greenhouse trial, foliar applied compositions, GALAP.
Excerpt: as §1, §2, §3

Assay [13] has as its system Papaver rhoeas L., common poppy (PAPRH). The assay is described as follows: greenhouse trial, foliar applied compositions, PAPRH.
Excerpt: as §1, §2, §3

Assay [14] has as its system Stellaria media (L.) Vill., common chickweed (STEME). As to the kind of experiment: greenhouse trial, foliar applied compositions, STEME.
Excerpt: as §1
In some embodiments, the methods provided herein are utilized to control undesirable vegetation in cereals. In certain embodiments, the undesirable vegetation is Alopecurus myosuroides Huds. (blackgrass, ALOMY), Apera spica venti (L.) Beauv. (windgrass, APESV), Avena fatua L. (wild oat, AVEFA), Bromus tectorum L. (downy brome, BROTE), Lolium multiflorum Lam. (Italian ryegrass, LOLMU), Lolium rigidum (rigid ryegrass), Lolium multiflorum subsp. Gaudini (annual ryegrass, LOLMG), Phalaris minor Retz. […]
as §3

Turning to `O=C(Nc1ccc(F)cc1)c1cccc(Oc2cccc(C(F)(F)F)c2)n1` [Picolinafen, N-(4-fluorophenyl)-6-[3-(trifluoromethyl)phenoxy]-2-pyridinecarboxamide], the “TRZAS Obs” value in [1] (Picolinafen 50 g ai/ha alone) turned out to be 10. For the same compound, the “HORVS Obs” value in [2] (Picolinafen 50 g ai/ha alone) is recorded as 10. Also, the “SINAR Obs” value in assay [3] (Picolinafen 50 g ai/ha alone) turned out to be 70. For the same compound, the “LAMPU Obs” value in assay [4] (Picolinafen 50 g ai/ha alone) came to 0. Further, the “CHEAL Obs” value in assay [5] (Picolinafen 50 g ai/ha alone) was found to be 70. Moreover, the “KCHSC Obs” value in assay [6] (Picolinafen 50 g ai/ha alone) worked out at 20. In addition, the “SASKR Obs” value in assay [7] (Picolinafen 50 g ai/ha alone) came out at 30. For the same compound, in assay [8] (Picolinafen 50 g ai/ha alone), the “VERPE Obs” value was 10. The “VIOTR Obs” value in [9] (Picolinafen 50 g ai/ha alone) was found to be 10. Moreover, the “MATCH Obs” value in [10] (Picolinafen 50 g ai/ha alone) turned out to be 0. In addition, the “CIRAR Obs” value in assay [11] (Picolinafen 50 g ai/ha alone) is 15.

Consider `O=C(Nc1ccc(F)cc1F)c1cccnc1Oc1cccc(C(F)(F)F)c1` [Diflufenican, N-(2,4-difluorophenyl)-2-[3-(trifluoromethyl)phenoxy]-3-pyridinecarboxamide], for which, in assay [1] (Diflufenican 50 g ai/ha alone), the “TRZAS Obs” value turned out to be 5. In [2] (Diflufenican 50 g ai/ha alone), the “HORVS Obs” value stood at 5. Also, the “SINAR Obs” value in assay [3] (Diflufenican 50 g ai/ha alone) was found to be 30. For the same compound, the “LAMPU Obs” value in [4] (Diflufenican 50 g ai/ha alone) is reported as 0. Besides, the “GALAP Obs” value in assay [12] (Diflufenican 50 g ai/ha alone) is on record as 0. The “CHEAL Obs” value in assay [5] (Diflufenican 50 g ai/ha alone) stood at 10. Moreover, the “KCHSC Obs” value in assay [6] (Diflufenican 50 g ai/ha alone) amounted to 40. Also, the “SASKR Obs” value in assay [7] (Diflufenican 50 g ai/ha alone) is recorded as 70. Moreover, the “VERPE Obs” value in assay [8] (Diflufenican 50 g ai/ha alone) amounted to 10. For the same compound, the “VIOTR Obs” value in assay [9] (Diflufenican 50 g ai/ha alone) was determined as 15. Also, the “MATCH Obs” value in assay [10] (Diflufenican 50 g ai/ha alone) is given as 0. In assay [13] (Diflufenican 50 g ai/ha alone), the “PAPRH Obs” value turned out to be 0. Further, the “CIRAR Obs” value in [11] (Diflufenican 50 g ai/ha alone) is 0.

With `COc1c(Cl)ccc(-c2nc(C(=O)OCc3ccccc3)c(Cl)c(N)c2F)c1F` [Cmpd 1, benzyl 4-amino-3-chloro-6-(4-chloro-2-fluoro-3-methoxyphenyl)-5-fluoropyridine-2-carboxylate], the “TRZAS Obs” value in assay [1] (Cmpd 1 2.5 g ae/ha alone) was found to be 0; in assay [1] (Cmpd 1 5 g ae/ha alone), 5. For the same compound, the “HORVS Obs” value in [2] (Cmpd 1 2.5 g ae/ha alone) and in assay [2] (Cmpd 1 5 g ae/ha alone) was 0 in each case. Moreover, the figures for the “SINAR Obs” value in assay [3] (Cmpd 1 2.5 g ae/ha alone) and in [3] (Cmpd 1 5 g ae/ha alone) were 60 and 70, respectively. Besides, the “LAMPU Obs” value in assay [4] (Cmpd 1 2.5 g ae/ha alone) and in [4] (Cmpd 1 5 g ae/ha alone) was 80 throughout. Besides, the “GALAP Obs” value in assay [12] (Cmpd 1 2.5 g ae/ha alone) and in assay [12] (Cmpd 1 5 g ae/ha alone) was 60 each time. Moreover, the “CHEAL Obs” value in assay [5] (Cmpd 1 2.5 g ae/ha alone) was 50; in assay [5] (Cmpd 1 5 g ae/ha alone) it was 60. The “KCHSC Obs” value in assay [6] (Cmpd 1 2.5 g ae/ha alone) is on record as 20; in assay [6] (Cmpd 1 5 g ae/ha alone) it was 40. Moreover, the “SASKR Obs” value in assay [7] (Cmpd 1 2.5 g ae/ha alone) turned out to be 10; in [7] (Cmpd 1 5 g ae/ha alone) it was 60. Also, the “VERPE Obs” value in [8] (Cmpd 1 2.5 g ae/ha alone) stood at 0; in assay [8] (Cmpd 1 5 g ae/ha alone) it was 5. The “VIOTR Obs” value in [9] (Cmpd 1 2.5 g ae/ha alone) and in assay [9] (Cmpd 1 5 g ae/ha alone) was 10 throughout. The “MATCH Obs” value in assay [10] (Cmpd 1 2.5 g ae/ha alone) came to 0; in [10] (Cmpd 1 5 g ae/ha alone), 10. Moreover, the “PAPRH Obs” value in assay [13] (Cmpd 1 2.5 g ae/ha alone) was 20; in assay [13] (Cmpd 1 5 g ae/ha alone), 70. Further, the “CIRAR Obs” value in [11] (Cmpd 1 2.5 g ae/ha alone) stood at 10; in [11] (Cmpd 1 5 g ae/ha alone) it was 20. The “STEME Obs” value in assay [14] (Cmpd 1 2.5 g ae/ha alone) was 20; in assay [14] (Cmpd 1 5 g ae/ha alone) it was 30.
